The source of these data is PMC10247892 (Biomedicine & Pharmacotherapy, 2023).

The subject of assay [1] is SARS-CoV-2 D614G. Nature of the assay: SARS-CoV-2 antiviral activity in a human nasal epithelial model. The format is cell-based. To be noted: HNE model.
Assay [2] concerns SARS-CoV-2. The assay can be described thus: SARS-CoV-2 replication on Calu-3 cells. To be noted: non-cytotoxic concentrations. The format is cell-based.
Assay [3] has as its system wildtype SARS-CoV-2 virus (D614G variant). Set-up: species or system golden Syrian hamsters. As to conditions: hamster, in vivo.

For `CCC(CC)COC(=O)[C@H](C)N[P@](=O)(OC[C@H]1O[C@@](C#N)(c2ccc3c(N)ncnn23)[C@H](O)[C@@H]1O)Oc1ccccc1` [Remdesivir], the “Effect on viral replication (in words)” value in assay [1] (drug in the basal medium) is recorded as “completely blocked it”.

Regarding `OC[C@H]1O[C@@H]2O[C@H]3[C@H](O)[C@@H](O)[C@@H](O[C@H]4[C@H](O)[C@@H](O)[C@@H](O[C@H]5[C@H](O)[C@@H](O)[C@@H](O[C@H]6[C@H](O)[C@@H](O)[C@@H](O[C@H]7[C@H](O)[C@@H](O)[C@@H](O[C@H]8[C@H](O)[C@@H](O)[C@@H](O[C@H]1[C@H](O)[C@H]2O)O[C@@H]8CO)O[C@@H]7CO)O[C@@H]6CO)O[C@@H]5CO)O[C@@H]4CO)O[C@@H]3CO` [β-CD, ß-Cyclodextrin], the “Inhibition of SARS-CoV-2 viral activity (in words)” value in assay [2] (D614G variant) and in assay [2] (Omicron BA.1 variant) was “inhibited the SARS-CoV-2 viral activity” throughout.

For the molecule Methyl-β-cyclodextrin [MβCD], the “Reduction of viral replication” value stood at 11% in assay [1] (2.5 mM constantly in the basal side) and 74% in assay [1] (2.5 mM on the apical side (initial addition), 48 h pi). The “Prophylactic effect (in words)” value in assay [3] is listed as “less potent prophylactic effect”.
